Source: ChEMBL document CHEMBL4706608, “Design and synthesis of 3-(4-pyridyl)-5-(4-sulfamido-phenyl)-1,2,4-oxadiazole derivatives as novel GSK-3β inhibitors and evaluation of their potential as multifunctional anti-Alzheimer agents” (Eur J Med Chem, 2021)
Calls of active or inactive are those of the source. The rule behind the calls is not given here.

How the values were obtained:
PC-12 [1] = assay: Neuroprotective activity against H2O2-induced cytotoxicity in rat PC12 cells assessed as increase in cell viability at 30 uM preincubated for 3 hrs followed by H2O2 addition and measured after 24 hrs by MTT assay (reference value: 24.8 to 41.7%); type: functional
[2] = Cytotoxicity against rat PC-12 cells assessed as cell viability at 50 uM by MTT assay relative to control; type: cell-based; conditions: read-out: Activity
BV-2 = assay: Anti-neuroinflammation in mouse BV2 cells assessed as inhibition of LPS-induced NO production preincubated for 1 hr followed by LPS addition measured after 24 hrs by Griess reagent based assay; type: functional, cell-based
PC-12 [3] = assay: Neuroprotective activity against H2O2-induced cytotoxicity in rat PC12 cells assessed as increase in cell viability at 10 uM preincubated for 3 hrs followed by H2O2 addition and measured after 24 hrs by MTT assay (reference value: 24.8 to 41.7%); type: functional
[4] = target: Glycogen synthase kinase-3 beta (Homo sapiens, UniProt P49841); assay: Inhibition of GSK3beta (unknown origin) measured after 40 mins by ADP-Glo assay
[5] = Cytotoxicity against rat PC-12 cells assessed as cell viability at 30 uM by MTT assay relative to control; type: cell-based; conditions: read-out: Activity
HepG2 [6] = assay: Increase in glucose consumption in human HepG2 cells at 20 uM after 24 hrs by glucose oxidase assay; type: functional, cell-based
HepG2 [7] = assay: Increase in glucose consumption in human HepG2 cells at 1 mM after 24 hrs by glucose oxidase assay (reference value: 1.36 mM); type: functional

Glycogen synthase kinase-3 beta, sequence (P49841 whole entry): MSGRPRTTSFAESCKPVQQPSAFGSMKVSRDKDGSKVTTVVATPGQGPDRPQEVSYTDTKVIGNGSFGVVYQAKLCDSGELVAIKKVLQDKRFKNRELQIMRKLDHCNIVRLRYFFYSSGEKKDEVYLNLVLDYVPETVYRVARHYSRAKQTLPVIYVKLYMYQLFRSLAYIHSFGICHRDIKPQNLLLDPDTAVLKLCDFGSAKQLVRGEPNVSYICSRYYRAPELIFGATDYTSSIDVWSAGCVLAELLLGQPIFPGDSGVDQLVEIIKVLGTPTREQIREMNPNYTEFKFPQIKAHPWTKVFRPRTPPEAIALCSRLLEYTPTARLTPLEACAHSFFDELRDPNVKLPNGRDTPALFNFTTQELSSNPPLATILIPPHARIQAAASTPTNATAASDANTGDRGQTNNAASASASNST

| Compound | Activity (PC-12 [1]) [%] | viability at 50 µM [2] [%] | IC50 (BV-2) [µM] | Activity (PC-12 [3]) [%] | IC50 [4] [µM] | viability at 30 µM [5] [%] | Activity (HepG2 [6]) | Activity (HepG2 [7]) [mM] |
| --- | --- | --- | --- | --- | --- | --- | --- | --- |
| O=[N+]([O-])c1cccc(S(=O)(=O)Nc2ccc(-c3nc(-c4ccnc(Nc5ccc(OC(F)(F)F)cc5)c4)no3)cc2)c1 | 64.7 | 94.3 | 2.15 | 53.7 | 8.32 | 94.3 | – | – |
| Cc1ccc(Nc2cc(-c3noc(-c4ccc(NS(=O)(=O)c5ccc(C(C)(C)C)cc5)cc4)n3)ccn2)cc1 | 64.4 | 87.9 | 1.5 | 59.4 | 4.56 | 97.9 | – | – |
| O=S(=O)(Nc1ccc(-c2nc(-c3ccnc(Nc4ccc(OC(F)(F)F)cc4)c3)no2)cc1)c1cccs1 | 54.9 | 94.5 | 1.3 | 57 | 7.63 | 97.5 | Active | – |
| CC(C)(C)c1ccc(S(=O)(=O)Nc2ccc(-c3nc(-c4ccnc(Nc5ccc(F)c(F)c5)c4)no3)cc2)cc1 | 60.4 | 92.7 | 2.44 | 49.6 | 1.32 | 97.7 | inactive | – |
| CN(C)C(=N)NC(=N)N [METFORMIN] | – | – | – | – | – | – | – | 3.28 |
| COc1ccc(Nc2cc(-c3noc(-c4ccc(NS(=O)(=O)c5ccc(C(C)(C)C)cc5)cc4)n3)ccn2)cc1 | 48.1 | 91.6 | 6.18 | 44.5 | 9.89 | 98.6 | – | – |
| CC(C)(C)c1ccc(S(=O)(=O)Nc2ccc(-c3nc(-c4ccnc(Nc5ccc(F)c(C(F)(F)F)c5)c4)no3)cc2)cc1 | 61.7 | 75.9 | 8.94 | 48.9 | 3.93 | 98.9 | – | – |
| O=[N+]([O-])c1ccc(S(=O)(=O)Nc2ccc(-c3nc(-c4ccnc(Nc5ccc(OC(F)(F)F)cc5)c4)no3)cc2)cc1 | 53.4 | 90.5 | 7.59 | 38.6 | > 50 | 98.5 | inactive | – |
| Cc1ccccc1Nc1cc(-c2noc(-c3ccc(NS(=O)(=O)c4ccc(C(C)(C)C)cc4)cc3)n2)ccn1 | 69.3 | 99.3 | 6.07 | 51.5 | 2.29 | 100 | – | – |
| CCc1ccc(Nc2cc(-c3noc(-c4ccc(NS(=O)(=O)c5ccc(C(C)(C)C)cc5)cc4)n3)ccn2)cc1 | 36.6 | 83.6 | 5.4 | 31.5 | 3.24 | 98.6 | – | – |
| Oc1ccc(/C=C/c2cc(O)cc(O)c2)cc1 [RESVERATROL] | – | – | 10.3 | – | – | – | – | – |
| O=S(=O)(Nc1ccc(-c2nc(-c3ccnc(Nc4ccc(OC(F)(F)F)cc4)c3)no2)cc1)c1ccc(F)cc1 | 67.3 | 97.9 | 4.41 | 59.4 | 2.69 | 99.9 | – | – |
| CC(=O)Nc1cccc(S(=O)(=O)Nc2ccc(-c3nc(-c4ccnc(Nc5ccc(OC(F)(F)F)cc5)c4)no3)cc2)c1 | 54.7 | 79.2 | 7.55 | 51.6 | 2.17 | 93.2 | inactive | – |
| O=c1c(O)c(-c2ccc(O)c(O)c2)oc2cc(O)cc(O)c12 [QUERCETIN] | 65.7 | 99.5 | – | 53.4 | – | 99.1 | – | – |
| CC(C)(C)c1ccc(S(=O)(=O)Nc2ccc(-c3nc(-c4ccnc(Nc5ccc(C(F)(F)F)cc5)c4)no3)cc2)cc1 | 71.9 | 94.1 | 8.69 | 63.2 | 1.49 | 99.1 | – | – |
| Cc1cccc(Nc2cc(-c3noc(-c4ccc(NS(=O)(=O)c5ccc(C(C)(C)C)cc5)cc4)n3)ccn2)c1 | 68.5 | 93.8 | 10.6 | 52.3 | 0.94 | 93.8 | – | – |
| CC(C)(C)c1ccc(S(=O)(=O)Nc2ccc(-c3nc(-c4ccnc(Nc5ccc(Cl)cc5F)c4)no3)cc2)cc1 | 49.6 | 88.5 | 4.4 | 46 | 2.85 | 98.5 | – | – |
| O=S(=O)(Nc1ccc(-c2nc(-c3ccnc(Nc4ccc(OC(F)(F)F)cc4)c3)no2)cc1)c1cccc(C(F)(F)F)c1 | 60.7 | 90.4 | 1.49 | 54.6 | 2.63 | 97.4 | inactive | – |
| CC(C)(C)c1ccc(S(=O)(=O)Nc2ccc(-c3nc(-c4ccnc(Nc5ccc(OC(F)(F)F)cc5)c4)no3)cc2)cc1 | 63.1 | 95.3 | 0.72 | 48.1 | 7.66 | 96.3 | – | – |
| CC(C)(C)c1ccc(Nc2cc(-c3noc(-c4ccc(NS(=O)(=O)c5ccc(C(C)(C)C)cc5)cc4)n3)ccn2)cc1 | 70.1 | 99.7 | 10.9 | 61.3 | 0.56 | 96.2 | Active | – |
| CC(C)c1ccc(Nc2cc(-c3noc(-c4ccc(NS(=O)(=O)c5ccc(C(C)(C)C)cc5)cc4)n3)ccn2)cc1 | 54.4 | 78.8 | 7.82 | 48.3 | 2.07 | 98.8 | – | – |
| O=S(=O)(Nc1ccc(-c2nc(-c3ccnc(Nc4ccc(OC(F)(F)F)cc4)c3)no2)cc1)c1ccccc1OC(F)(F)F | 49.8 | 85.6 | 2.53 | 40.4 | 1.21 | 91.6 | – | – |
| O=S(=O)(Nc1ccc(-c2nc(-c3ccnc(Nc4ccc(OC(F)(F)F)cc4)c3)no2)cc1)c1ccc(F)c(Cl)c1 | 40.1 | 92.1 | 4.96 | 36.9 | 18.9 | 98.1 | – | – |
| COC(=O)c1ccc(S(=O)(=O)Nc2ccc(-c3nc(-c4ccnc(Nc5ccc(OC(F)(F)F)cc5)c4)no3)cc2)s1 | 30.6 | 98.6 | 1.31 | 25.6 | 1.19 | 97.2 | – | – |
| COc1ccc(S(=O)(=O)Nc2ccc(-c3nc(-c4ccnc(Nc5ccc(OC(F)(F)F)cc5)c4)no3)cc2)cc1 | 68.6 | 92.2 | 3.23 | 55.8 | 15.4 | 99.2 | Active | – |
| O=S(=O)(Nc1ccc(-c2nc(-c3ccnc(Nc4ccc(OC(F)(F)F)cc4)c3)no2)cc1)c1ccc(OC(F)(F)F)cc1 | 32.4 | 100 | 4.22 | 30.6 | 8.74 | 98.7 | – | – |
| O=S(=O)(Nc1ccc(-c2nc(-c3ccnc(Nc4ccc(OC(F)(F)F)cc4)c3)no2)cc1)c1ccc(Cl)s1 | 32.7 | 87.9 | 6.23 | 27.1 | 2.98 | 97.9 | – | – |
| O=S(=O)(Nc1ccc(-c2nc(-c3ccnc(Nc4ccc(OC(F)(F)F)cc4)c3)no2)cc1)c1ccc(Br)cc1 | 55.8 | 82.5 | 5.16 | 52.3 | 3.12 | 102 | – | – |
